Reference: US20250263370A1 (Tay Therapeutics Limited, priority 2022, published 2025)
Like-named read-outs stand apart in the source and are kept apart here.

What was measured:
BRD4 BD1 = BRD4 BD1 (Homo sapiens (Human), UniProt O60885); assay: NanoBRET bromodomain assay, NanoLuc-BRD4-BD1 fusion in HEK293 cells; assay type: cell-based; conditions: top concentration 10 μM
BRD4 BD2 = BRD4 BD2 (Homo sapiens (Human), UniProt O60885); assay: NanoBRET bromodomain assay, NanoLuc-BRD4-BD2 fusion in HEK293 cells; conditions: for IC50: NanoBRET, HEK293 cells, top concentration 10 μM; for Fold selectivity: IC50 for BRD4 BD1 divided by IC50 for BRD4 BD2, qualitative if an IC50 is at the upper limit;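 for all read-outs here: tracer displacement BRET read in transfected cells after 2 h compound exposure at 37 °C, signal in milliBRET units corrected against no-tracer background wells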
Description: HEK293 cells were transfected using NanoLuc-BRD4-BD1 or NanoLuc-BRD4-BD2 fusion vectors and incubated at 37° C. in an atmosphere of 5% CO2 for 20-24 hours. The transfected cells were then dispensed into 96-well plates using 90 μl cell suspension per well containing 2×10^5 cells/mL in Opti-MEM and 1× final concentration of tracer. 90 μL per well of cell suspension without tracer was also dispensed into at least 3 wells as “No tracer control samples” for background correction. Serially diluted test compounds were prepared at 1000× concentration in DMSO and further diluted to 10× concentration in Opti-MEM. […] Plates were then incubated at 37° C. +5% 002 incubator for 2 hours. […] Donor emission (450 nm) and acceptor emission (610 nm) were measured using PHERAstar (BMG LabTech). For data analysis, the raw BRET ratio was generated and converted to milliBRET units with background correction using the formula: [(Acceptorsample/Donorsample−(Acceptorno tracer control/Donorno tracer control)]×1000. The mBU data was plotted as a function of compound concentration and IC50s for BRET assay were determined by nonlinear regression analysis of concentration response curves using the Collaborative Drug Discovery Vault software. The fold-selectivity was calculated by dividing the IC50 for BRD4 BD1 by the IC50 for BRD4 BD2.

Structure (SMILES)	IC50 (BRD4 BD1)	IC50 (BRD4 BD2; BRD4 BD2 (IC50))	Fold selectivity (BRD4 BD2)	IC50 (BRD4 BD2; read-out: BRD4 BD2 (IC50))	BRD4 BD2 % Activity Remaining @ 10 uM (BRD4 BD2; 10 uM, (2) = second batch)	remaining activity at 10 µM (BRD4 BD2; HEK293, read-out: BRD4 BD2 % Activity Remaining @ 10 uM, 10 uM, (2) = second batch)
CCNC(=O)c1cc(OC(C)c2ccccc2F)c(C(=O)NC)[nH]1 (single isomer, unassigned) [Example 21, N^5-ethyl-3-(1-(2-fluorophenyl)ethoxy)-N^2-methyl-1H-pyrrole-2,5-dicarboxamide]	≥ 10 µM	> 10 µM	— (Fold ≥0 and ≤2)			
CCNC(=O)c1cc(OC(C)c2ccc(C)cc2)c(C(=O)NC)[nH]1 (single isomer, unassigned) [Example 25, N^5-ethyl-N^2-methyl-3-(1-(p-tolyl)ethoxy)-1H-pyrrole-2,5-dicarboxamide]	≥ 10 µM	< 0.05 µM	XXX (Fold >200)			
CCNC(=O)c1cc(OC(C)c2ccc(C)cc2)c(C(=O)NC)[nH]1 (single isomer, unassigned) [Example 26, N^5-ethyl-N^2-methyl-3-(1-(p-tolyl)ethoxy)-1H-pyrrole-2,5-dicarboxamide]	≥ 10 µM	> 10 µM	— (Fold ≥0 and ≤2)			
CNC(=O)c1[nH]c(C(=O)N[C@H]2CC[C@H](O)CC2)cc1OC(C)c1ccc(Cl)cc1F (single isomer, unassigned) [Example 37, 3-(1-(4-chloro-2-fluorophenyl)ethoxy)-N^5-(trans-4-hydroxycyclohexyl)-N^2-methyl-1H-pyrrole-2,5-dicarboxamide]	≥ 10 µM	1 to 10 µM	— (Fold ≥0 and ≤2)			
CCNC(=O)c1cc(OC(C)c2ccc(Cl)cc2F)c(C(=O)NC)[nH]1 (single isomer, unassigned) [Example 42, 3-(1-(4-chloro-2-fluorophenyl)ethoxy)-N^5-ethyl-N^2-methyl-1H-pyrrole-2,5-dicarboxamide]	≥ 10 µM	> 10 µM	— (Fold ≥0 and ≤2)			
CCNC(=O)c1cc(OC(C)c2ccc(Br)cc2)c(C(=O)NC)[nH]1 (single isomer, unassigned) [Example 50, 3-(1-(4-bromophenyl)ethoxy)-N^5-ethyl-N^2-methyl-1H-pyrrole-2,5-dicarboxamide]	≥ 10 µM	> 10 µM	— (Fold ≥0 and ≤2)			
CCNC(=O)c1cc(OC(C)c2ccc(I)cc2)c(C(=O)NC)[nH]1 (single isomer, unassigned) [Example 52, N^5-ethyl-3-(1-(4-iodophenyl)ethoxy)-N^2-methyl-1H-pyrrole-2,5-dicarboxamide]	≥ 10 µM	> 10 µM	— (Fold ≥0 and ≤2)			
CCNC(=O)c1cc(OC(C)c2c(C)cccc2C)c(C(=O)NC)[nH]1 (single isomer, unassigned) [Example 65, 3-(1-(2,6-dimethylphenyl)ethoxy)-N^5-ethyl-N^2-methyl-1H-pyrrole-2,5-dicarboxamide]	≥ 10 µM	> 10 µM	— (Fold ≥0 and ≤2)			
CCNC(=O)c1cc(OC(C)c2c(Cl)cccc2Cl)c(C(=O)NC)[nH]1 (single isomer, unassigned) [Example 66, 3-(1-(2,6-dichlorophenyl)ethoxy)-N^5-ethyl-N^2-methyl-1H-pyrrole-2,5-dicarboxamide]	≥ 10 µM	> 10 µM	— (Fold ≥0 and ≤2)			
CCNC(=O)c1cc(OC(C)c2c(Cl)cccc2Cl)c(C(=O)NC)[nH]1 (single isomer, unassigned) [Example 67, 3-(1-(2,6-dichlorophenyl)ethoxy)-N^5-ethyl-N^2-methyl-1H-pyrrole-2,5-dicarboxamide]	≥ 10 µM		— (Fold ≥0 and ≤2)	> 10 µM		
CCNC(=O)c1cc(OC(C)c2ccc(OC)cc2)c(C(=O)NC)[nH]1 (single isomer, unassigned) [Example 75, N^5-ethyl-3-(1-(4-methoxyphenyl)ethoxy)-N^2-methyl-1H-pyrrole-2,5-dicarboxamide]	≥ 10 µM	0.05 to 0.2 µM	XX (Fold >50 and ≤200)			
CCNC(=O)c1cc(OC(C)c2ccc(OC)cc2)c(C(=O)NC)[nH]1 (single isomer, unassigned) [Example 76, N^5-ethyl-3-(1-(4-methoxyphenyl)ethoxy)-N^2-methyl-1H-pyrrole-2,5-dicarboxamide]	≥ 10 µM	> 10 µM	— (Fold ≥0 and ≤2)			
CCNC(=O)c1cc(OC(C)c2ccnnc2)c(C(=O)NC)[nH]1 (single isomer, unassigned) [Example 78, N^5-ethyl-N^2-methyl-3-(1-(pyridazin-4-yl)ethoxy)-1H-pyrrole-2,5-dicarboxamide]	≥ 10 µM	> 10 µM	— (Fold ≥0 and ≤2)			
CCNC(=O)c1cc(OC(C)c2ccnnc2)c(C(=O)NC)[nH]1 (single isomer, unassigned) [Example 79, N^5-ethyl-N^2-methyl-3-(1-(pyridazin-4-yl)ethoxy)-1H-pyrrole-2,5-dicarboxamide]	≥ 10 µM	1 to 10 µM	— (Fold ≥0 and ≤2)			
CNC(=O)c1[nH]c(C(=O)N[C@H]2CC[C@H](O)CC2)cc1O[C@@H](C)c1ccnnc1 (single isomer, unassigned) [Example 91, N^5-(4-hydroxycyclohexyl)-N^2-methyl-3-(1-(pyridazin-4-yl)ethoxy)-1H-pyrrole-2,5-dicarboxamide]	≥ 10 µM	> 10 µM	— (Fold ≥0 and ≤2)			
CNC(=O)c1[nH]c(C(=O)N[C@H]2CC[C@H](O)CC2)cc1O[C@@H](C)c1ccnnc1 (single isomer, unassigned) [Example 93, N^5-(4-hydroxycyclohexyl)-N^2-methyl-3-(1-(pyridazin-4-yl)ethoxy)-1H-pyrrole-2,5-dicarboxamide]	≥ 10 µM		— (Fold ≥0 and ≤2)	> 10 µM		
CNC(=O)c1[nH]c(C(=O)N[C@H]2CC[C@H](O)CC2)cc1O[C@@H](C)c1ccnnc1 (single isomer, unassigned) [Example 94, N^5-(4-hydroxycyclohexyl)-N^2-methyl-3-(1-(pyridazin-4-yl)ethoxy)-1H-pyrrole-2,5-dicarboxamide]	≥ 10 µM		— (Fold ≥0 and ≤2)	> 10 µM		
CNC(=O)c1[nH]c(-c2ncc(C)[nH]2)cc1O[C@@H](C)c1ccccc1 [23 (2)*]	≥ 10 µM	> 10 µM	— (Fold ≥0 and ≤2)		61%	
CCNC(=O)c1cc(OC(C)c2cccc(C#N)c2)c(C(=O)NC)[nH]1 (stereo not shown) [Example 4, 3-(1-(3-cyanophenyl)ethoxy)-N^5-ethyl-N^2-methyl-1H-pyrrole-2,5-dicarboxamide]	≥ 10 µM	> 10 µM	— (Fold ≥0 and ≤2)			
CNC(=O)c1[nH]c(-c2ncc(C)[nH]2)cc1O[C@H](C)c1ccccc1 [Example 24, (R)-N-methyl-5-(5-methyl-1H-imidazol-2-yl)-3-(1-phenylethoxy)-1H-pyrrole-2-carboxamide]	≥ 10 µM	1 to 10 µM				41%
CNC(=O)c1[nH]c(C(=O)NCC(F)(F)F)cc1O[C@@H](C)c1ccccc1F [Example 57, (S)-3-(1-(2-fluorophenyl)ethoxy)-N^2-methyl-N^5-(2,2,2-trifluoroethyl)-1H-pyrrole-2,5-dicarboxamide]	≥ 10 µM	0.2 to 1 µM	X (Fold >2 and ≤50)			
